{"source": "patent US11219607B2", "about": "“Methods for suppressing cancer-related cachexia” (Ohio State Innovation Foundation, priority 2013, dated 2022)", "key": {"TNF": {"test_system": "TNF", "experiment": "Serum cytokine profiling, C-26 model: TNF", "format": "in vivo, CD2F1 mice", "settings": "C-26 tumor-bearing mice", "source_text": "Gastrocnemius muscles and sera were collected at day 17 post-cell injection from each treatment group (n=8/group). Muscle was submitted to Metabolon, Inc. (Durham, N.C.) for metabolomic analysis of 270 metabolic intermediates via proprietary mass spectrometry platforms. Serum was submitted to Eve Technologies (Alberta, Canada) for analysis of 32 cytokines using a mouse cytokine array (32-plex panel).\nTo shed light onto the mechanism by which AR-42 mediated its anti-cachectic effect, sera and gastrocnemius muscle from vehicle- or AR-42-treated tumor-free and C-26 tumor-bearing mice were used for cytokine profiling analysis and whole transcriptome shotgun sequencing (RNA-seq), respectively."}, "LLC tumor-bearing mice": {"test_system": "LLC tumor-bearing mice", "experiment": "LLC mouse model of cachexia, hindlimb muscle mass", "format": "in vivo", "settings": "LLC tumor-bearing C57BL/6 mice, 50 mg/kg p.o. every other day, day 6 to day 20", "procedure": "In another aspect, subcutaneous tumors were established in male C57BL/6 mice (approximately 6 weeks of age; Harlan) by injection of 0.5×10^6 LLC cells into the right flank. Treatment with AR-42 and vehicle was performed as for the C-26 model beginning 6 days after cell injection. In both models, body weights and food consumption were monitored daily and tumor size was measured no less than every two days. Mice were fasted for 2 hours prior to sacrifice, at which time, hind limb muscles, heart, spleen, epididymal fat, and blood were collected and the weights of the solid tissues were measured. Muscle samples were frozen in liquid nitrogen-chilled 2-methylbutane and then stored at −80° C. until analysis.\n(§1) To confirm that the anti-cachectic activity of AR-42 was not specific to the C-26 model, it was also evaluated in the LLC model. C57BL/6 mice bearing subcutaneous LLC tumors were treated with AR-42 (50 mg/kg, p.o., every other day) starting on day 6 after tumor cell injection, and continuing until day 20 when hind limb muscles were harvested at sacrifice.\nas §1, with “subcutaneous […]” for “subcutaneous”"}, "[1]": {"test_system": "global gene expression in muscle of C-26 tumor-bearing mice", "experiment": "RNA-seq of gastrocnemius muscle, C-26 model", "format": "in vivo, CD2F1 mice", "procedure": "(§2) Total RNA was isolated from homogenized gastrocnemius muscles (n=3/group) with TRIzol reagent (Life Technologies, Carlsbad, Calif.) and then purified using the RNAeasy Mini Kit (Qiagen, Valencia, Calif.). qRT-PCR was performed as described previously (42) by using the Bio-Rad CFX96 Real-Time PCR Detection System with iQ SYBR Green Supermix (Bio-Rad, Hercules, Calif.). RNA-seq library generation and data analysis were performed at The Ohio State University Comprehensive Cancer Center (OSUCCC) Nucleic Acid Shared Resource.\nData analysis was conducted by using SAS 9.3 software (SAS, Inc; Cary, N.C.). For the experiments with repeated measures, data were analyzed by mixed effect models, incorporating observational dependencies across each subject. For other experiments involving independent groups, data were analyzed by ANOVA. For the time-to-event experiment (FIG. 2B), the difference in survival functions were compared by log-rank tests. Multiplicities were adjusted by Holm's method to control the overall family-wise error rate at 0.05. RNA-seq data were analyzed by using Ingenuity Pathway Analysis (IPA) software (Ingenuity Systems, Redwood City, Calif.). Only genes with >4-fold change and P<0.05 were selected for pathway analysis. […]\nRNA quality was assessed on an Agilent 2100 Bioanalyzer using a Pico RNA chip and the input total RNA amount was assessed using Agilent Qubit RNA assay. […] The resultant libraries were assessed for quantity and quality using Agilent Qubit DNA assay and with PerkinElmer Labchip DNA GX analysis, respectively. All libraries were mixed in equal proportions generating pools of samples that would yield approximately 40 million passed filter reads when sequenced on Illumina HiSeq 2500 sequencer. The raw sequencing data from the Illumina HiSeq CASAVA pipeline were assessed for quality using FastQC, RNASeQC and RSeQC software. […]"}, "[2]": {"test_system": "gastrocnemius muscle fibers of C-26 tumor-bearing mice", "experiment": "Morphometric analysis of muscle fiber size, C-26 model", "format": "in vivo, CD2F1 mice", "settings": "day 15, tumor-bearing/vehicle 1297.6±638.8, tumor-free control 2503.5±917.5, mean±S.D.", "procedure": "Ten-μm sections were cut from frozen skeletal muscle samples using a cryostat (Leica) and then stained with H&E. Images were captured using an Olympus BX51 microscope (Olympus America, Inc.) and muscle fiber cross-sectional areas were determined using Olympus CellSens 1.11 software. Measurements were obtained from five different sections of muscle from each of five mice from each group.\nThe protective effect of AR-42 against muscle wasting was manifested by the abrogation of cachexia-induced reduction in skeletal muscle fiber size. […] The prominent shift in fiber size distribution to smaller cross-sectional area in cachectic muscles of tumor-bearing/vehicle mice was reversed by AR-42 (FIG. 2A, right)"}, "MuRF1 mRNA": {"test_system": "MuRF1 mRNA", "experiment": "qPCR of gastrocnemius muscle, C-26 model: MuRF1", "format": "in vivo, CD2F1 mice", "settings": "C-26 tumor-bearing mice, 15 days after tumor cell injection, tumor-bearing/vehicle 25.8±3.9-fold, mean±S.D.", "procedure": "as §2\nAR-42 was able to restore expression of Atrogin-1 (2.7±0.7-fold) and MuRF1 (1.1±0.2-fold) mRNA to basal levels […]."}}}
{"smiles": "CC(C)[C@H](C(=O)Nc1ccc(C(=O)NO)cc1)c1ccccc1", "note": "[AR-42, (S)—N-hydroxy-4-(3-methyl-2-phenylbutanamido)benzamide]", "values": [{"measurement": "effect on serum TNF levels", "setting": "TNF", "result": "no effect"}, {"measurement": "tibialis anterior mass, % of non-cachectic control", "setting": "LLC tumor-bearing mice; vehicle 80.3±4.0%", "result": "93.4±3.9", "unit": "%"}, {"measurement": "gastrocnemius mass, % of non-cachectic control", "setting": "LLC tumor-bearing mice; vehicle 81.7±3.7%", "result": "92.2±3.5", "unit": "%"}, {"measurement": "quadriceps mass, % of non-cachectic control", "setting": "LLC tumor-bearing mice; vehicle 84.4±4.6%", "result": "93.4±4.8", "unit": "%"}, {"measurement": "number of downregulated genes (4-fold or greater), AR-42- versus vehicle-treated tumor-bearing mice", "setting": "[1]", "result": 301, "unit": "genes"}, {"measurement": "number of upregulated genes (4-fold or greater), AR-42- versus vehicle-treated tumor-bearing mice", "setting": "[1]", "result": 376, "unit": "genes"}, {"measurement": "number of genes with 4-fold or greater differential expression, AR-42- versus vehicle-treated tumor-bearing mice", "setting": "[1]; total", "result": 677, "unit": "genes"}, {"measurement": "mean cross-sectional area of muscle fibers", "setting": "[2]", "result": "2146.3±923.4", "unit": "μm^2"}, {"measurement": "MuRF1 mRNA level relative to tumor-free/vehicle control", "setting": "MuRF1 mRNA", "result": "1.1±0.2", "unit": "fold"}]}
